Experimental data from patent US20210171576A1, “METHODS FOR TREATING CANCER WITH ACYLDEPSIPEPTIDE ANALOGS” (priority 2018, published 2021).
Where a SMILES comes first, the peptide text is derived from it. Bridges are numbered along the chain shown (N, C = ends). [ ]: non-standard residue; d: D form. The star is where a group is joined. Phe(3,5-F2) = N[C@@H](Cc1cc(F)cc(F)c1)C(=O)O; Pip(4S-Me) = C[C@H]1CCN[C@H](C(=O)O)C1; Hexadienoyl(2E,4E) = C/C=C/C=C/C(=O)*; Pro(4R-Me) = C[C@H]1CN[C@H](C(=O)O)C1; Heptenoyl(2E) = CCCC/C=C/C(=O)*; aThr = C[C@H](O)[C@H](N)C(=O)O; Pip = O=C(O)[C@@H]1CCCCN1; X2 = O=C(/C=C/CC1CCCCC1)*; NMeA = CN[C@@H](C)C(=O)O; X3 = O=C(/C=C/CC1CC1)*; X9 = CCCCC#CC(=O)*

Target: T1, human mitochondrial CIpP (HsCIpP) (Homo sapiens, UniProt Q16740)
T1 construct: made in house; host or cells: E. coli SG1146 (BL21(DE3) ΔclpP::cat)
Assay: Screen of ADEP analogs against HsCIpP: relative degradation (RD) index, casein-FITC degradation relative to E. coli CIpAP
Type: biochemical
Design: key: casein-FITC degradation by HsClpP relative to EcClpAP
Details: for Hs RD1: RD value at 1 μM of the ADEP analog; for Hs RD5: RD value at 5 μM of the ADEP analog; for Hs RD25: RD value at 25 μM of the ADEP analog, measure of ability to activate HsCIpP
Text: Structural analogs of acyldepsipeptide (ADEP) (Goodreid et al., 2016) that were previously developed as potential antibiotics against bacterial CIpP were screened and assessed for their ability to activate and dysregulate the protease activity of HsCIpP, by measuring their relative degradation (RD) index. Note that ADEP-28 was also previously reported by Carney et al. (2014). Details of the experimental protocol have been described in Leung et al., 2011. The RD index is defined as follows: […]
Δφ is the change in fluorescence after 6 hr of starting the reaction measured using 485 nm excitation and 535 nm emission, which primarily detects the signal from casein-FITC. E. coli CIpAP was used as a benchmark for maximum CIpP proteolytic activity. The CIpP in the numerator can be from any other organism. RD25 measurements refer to the measurement in the presence of 25 μM compound. All ADEP analogs were first screened at 25 μM, and their RD25 scores were calculated using the above formula and method as described in Leung et al., 2011 (FIG. 1A). Those that achieved RD25≥0.87 were screened a second time at 5 μM, followed by calculation of their RD5 scores. The top analogs with RD5≥0.74 were screened a third time at 1 μM, followed by calculation of their RD1 scores (FIG. 1B).
To identify ADEP analogs that allow HsCIpP to degrade folded proteins independent of HsCIpX+ATP (i.e., that activate or dysregulate HsCIpP), the inventors employed the in vitro screening method that was used for identifying small molecule activators of Escherichia coli CIpP (EcCIpP) (Leung et al., 2011). In this approach, the ability of HsCIpP to degrade FITC-labeled casein (casein-FITC) was measured and compared to the ability of EcCIpAP to degrade casein-FITC. This is quantitatively expressed as relative degradation (RD) index (Leung et al., 2011).

T1 sequence (Q16740 57-277): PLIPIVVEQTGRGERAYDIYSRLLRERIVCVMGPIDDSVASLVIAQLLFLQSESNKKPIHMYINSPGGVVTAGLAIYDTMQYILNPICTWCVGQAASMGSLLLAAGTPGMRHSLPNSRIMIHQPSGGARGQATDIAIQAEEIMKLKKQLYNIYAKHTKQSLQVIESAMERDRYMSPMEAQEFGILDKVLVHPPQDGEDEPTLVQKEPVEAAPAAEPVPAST

| SMILES | Hs RD1 | Hs RD5 | Hs RD25 |
| --- | --- | --- | --- |
| CCCC/C=C/C(=O)N[C@@H](Cc1cc(F)cc(F)c1)C(=O)N[C@@H]1C(=O)N2CCC[C@H]2C(=O)N2CCCC[C@H]2C(=O)N[C@@H](C)C(=O)N2C[C@H](C)C[C@H]2C(=O)O[C@H]1C [ADEP-29] ({Heptenoyl(2E)}-[Phe(3,5-F2)][aThr]P[Pip]A[Pro(4R-Me)]; ester 2-C) | 0.76 | 0.87 | 0.92 |
| CCCC/C=C/C(=O)N[C@H](Cc1ccccc1)C(=O)N[C@H]1COC(=O)[C@@H]2CCCN2C(=O)[C@H](C)NC(=O)[C@@H]2CCCCN2C(=O)[C@@H]2CCCN2C1=O [ADEP-02] | 0.52 | 0.88 | 1.08 |
| CCCC/C=C/C(=O)N[C@@H](Cc1cc(F)cc(F)c1)C(=O)N[C@H]1COC(=O)[C@@H]2C[C@@H](C)CN2C(=O)[C@H](C)NC(=O)[C@@H]2CCCN2C(=O)[C@@H]2CCCN2C1=O [ADEP-15] | 0.58 | 0.92 | 1.05 |
| CCCC/C=C/C(=O)N[C@@H](Cc1c(F)c(F)c(F)c(F)c1F)C(=O)N[C@H]1COC(=O)[C@@H]2C[C@@H](C)CN2C(=O)[C@H](C)NC(=O)[C@@H]2CCCCN2C(=O)[C@@H]2CCCN2C1=O [ADEP-45] |  |  | 0.29 |
| C[C@@H]1NC(=O)[C@H](C)N(C)C(=O)[C@@H]2CCCN2C(=O)[C@@H](NC(=O)[C@@H](N)Cc2ccccc2)COC(=O)[C@@H]2CCCN2C1=O [ADEP-40] (H-FSP[NMeA]AP; ester 2-C) |  |  | 0.00 |
| CCC/C=C/C(=O)N[C@@H](Cc1cccc(F)c1)C(=O)N[C@H]1COC(=O)[C@@H]2C[C@@H](C)CN2C(=O)[C@H](C)NC(=O)[C@@H]2CCCCN2C(=O)[C@@H]2CCCN2C1=O [ADEP-20] | 0.53 | 0.90 | 1.04 |
| CCCCC#CC(=O)N[C@@H](Cc1ccccc1)C(=O)N[C@H]1COC(=O)[C@@H]2CCCN2C(=O)[C@H](C)NC(=O)[C@H](C)N(C)C(=O)[C@@H]2CCCN2C1=O [ADEP-12] (X9-FSP[NMeA]AP; ester 2-C) |  |  | 0.36 |
| C[C@@H]1C[C@H]2C(=O)O[C@@H](C)[C@H](NC(=O)[C@H](Cc3cc(F)cc(F)c3)NC(=O)/C=C/CC3CC3)C(=O)N3CCC[C@H]3C(=O)N3CCCC[C@H]3C(=O)N[C@@H](C)C(=O)N2C1 [ADEP-13] (X3-[Phe(3,5-F2)][aThr]P[Pip]A[Pro(4R-Me)]; ester 2-C) | 0.59 | 0.91 | 1.02 |
| CCCC/C=C/C(=O)N[C@@H](Cc1cc(F)cc(F)c1)C(=O)N[C@@H]1C(=O)N2CCC[C@H]2C(=O)N2CC[C@H](C)C[C@H]2C(=O)N[C@@H](C)C(=O)N2C[C@H](C)C[C@H]2C(=O)O[C@H]1C [ADEP-38] ({Heptenoyl(2E)}-[Phe(3,5-F2)][aThr]P[Pip(4S-Me)]A[Pro(4R-Me)]; ester 2-C) | 0.76 | 0.89 | 0.95 |
| C[C@@H]1C[C@H]2C(=O)O[C@@H](C)[C@H](NC(=O)[C@H](Cc3cc(F)cc(F)c3)NC(=O)/C=C/CC3CCCCC3)C(=O)N3CCC[C@H]3C(=O)N3CCCC[C@H]3C(=O)N[C@@H](C)C(=O)N2C1 [ADEP-17] (X2-[Phe(3,5-F2)][aThr]P[Pip]A[Pro(4R-Me)]; ester 2-C) | 0.86 | 0.91 | 1.02 |
| C/C=C/C=C/C(=O)N[C@@H](Cc1ccccc1)C(=O)N[C@H]1COC(=O)[C@@H]2C[C@@H](C)CN2C(=O)[C@H](C)NC(=O)[C@H](C)N(C)C(=O)[C@@H]2CCCN2C1=O [ADEP-03] ({Hexadienoyl(2E,4E)}-FSP[NMeA]A[Pro(4R-Me)]; ester 2-C) |  |  | 0.66 |
